Laboratory results taken from publication PMC2062954, “Microencapsulated octreotide pamoate in advanced gastrointestinal and pancreatic cancer: a phase I study” (British Journal of Cancer, 1998).

Experiment: Plasma octreotide levels by RIA
Assay type: in vivo, human
Protocol: Norway Summary Fourteen patients suffering from advanced colorectal (n = 7), pancreatic (n = 4) or gastric (n = 3) carcinomas received treatment with microencapsulated octreotide pamoate 90 mg i.m. every 4 weeks (n = 4), 160 mg i.m. every 4 weeks (n = 4) or 160 mg i.m. every 2 weeks (n = 6). […] In this study we evaluate the tolerability. clinical effects, pharmacokinetics and effects on plasma IGF-I and -II of a new microencapsulated formulation of octreotide pamoate in patients suffering from gastrointestinal and pancreatic carci- nomas. […] Thus. apart from deter- mining plasma IGF-I and -HI together with IGFBP-1 and -3 with radioimmunoassay (RIA). we measured IGFBPs using Western ligand blotting and the functional status of IGFBP-3 using immunoblotting. […] PATIENTS AND METHODS Patients Fourteen patients (eight men and six A-omen) with progressive locally advanced and/or metastatic adenocarcinomas of abdominal origin were studied (Table 1). Any other svstemic anti-cancer therapy had been terminated at least 4 weeks before inclusion in the study.

C[C@@H](O)[C@@H]1NC(=O)[C@H](CCCCN)NC(=O)[C@@H](Cc2c[nH]c3ccccc23)NC(=O)[C@H](Cc2ccccc2)NC(=O)[C@@H](NC(=O)[C@H](N)Cc2ccccc2)CSSC[C@@H](C(=O)N[C@H](CO)[C@@H](C)O)NC1=O [octreotide]
ratio of peak octreotide level at first day of injection to plasma level just before the next injection (all cohorts, i.m. depot, range, generally two to five times higher, data not shown): 2.2-9.9
lowest plasma level of octreotide observed at any time during treatment (individual patients, all cohorts, RIA): 3.4 ng/mL
highest plasma octreotide level (one patient in cohort 3 (160 mg i.m. every 2 weeks), long-term treatment > 6 months, at day 13, subsequent gradual decline): 98.9 ng/mL
